Laboratory results taken from US7196083B2, “Heteropolycyclic inhibitors of protein kinases” (priority 2000, dated 2007).
≈ marks a conversion by molar mass, not a printed value. Read-outs that look alike come from different tables or passages of the source.

Tests used:
[1] = tested on: B16-F10 (murine melanoma); experiment: [3H] thymidine uptake cell proliferation assay, B16F10; assay type: cell-based; conditions: Mus musculus, read-out: Cell Proliferation Effects (IC50 (nM))
[2] = tested on: NIH-3T3 (murine embryonic fibroblasts); experiment: [3H] thymidine uptake cell proliferation assay, NIH3T3; assay type: cell-based; conditions: Mus musculus; NIH3T3, non-tumorigenic cell line; read-out: Cell Proliferation Effects (IC50 (nM))
PKB gamma = target: T1, PKB gamma (Homo sapiens, UniProt Q9Y243); experiment: Kinase assay in U87 cells using anti PKB gamma antibody; assay type: cell-based; conditions: U-87 MG, 1 h, after 60 min, read-out: PKB gamma isoform activity, reduction of activity to
T1 construct: endogenous in cells; host or cells: U87 cells
T1 sequence (Q9Y243 whole entry, canonical isoform): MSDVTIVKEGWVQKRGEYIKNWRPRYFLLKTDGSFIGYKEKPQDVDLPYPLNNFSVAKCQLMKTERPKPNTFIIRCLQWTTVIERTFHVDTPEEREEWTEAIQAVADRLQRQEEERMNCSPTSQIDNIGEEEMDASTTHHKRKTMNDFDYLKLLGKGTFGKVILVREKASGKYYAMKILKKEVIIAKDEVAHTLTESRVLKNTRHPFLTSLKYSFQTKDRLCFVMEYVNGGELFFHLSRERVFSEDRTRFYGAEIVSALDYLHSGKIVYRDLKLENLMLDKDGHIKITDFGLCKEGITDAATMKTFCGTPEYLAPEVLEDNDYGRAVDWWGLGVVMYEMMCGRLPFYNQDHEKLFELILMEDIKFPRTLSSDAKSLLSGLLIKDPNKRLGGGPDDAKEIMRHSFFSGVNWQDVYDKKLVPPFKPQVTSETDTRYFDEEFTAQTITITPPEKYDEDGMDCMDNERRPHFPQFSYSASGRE
Protocol: (§1) In preparation for this assay, each cell line was seeded at a density of 3 times 1,000,000 cells per plate onto 150 mm culture dishes and allowed to establish o/n at 37 deg C. A confluency of 50–60% was obtained to ensure maximal drug penetration into each cell. Once the cells were adherent to the culture plates, there were treated with PKB inhibitor KP-23172 for a final conc. of 5 uM. Each culture plate was lysed on ice at specific time intervals using 1% NP-40 lysis buffer containing various protease inhibitors; 10 ug/uL aprotinin, 10 ug/ul leupeptin, 1 ug/ul pepstatin, 1 M beta-glycerophosphate and 100 mM PMSF. The resulting lysates were centrifuged at 15K×g at 4 deg C. for 5 min and then assayed for its protein conc. using Bradford's Reagent and absorbance measurements at 595 nm. Equal amounts of protein were transferred to a new centrifuge tube and treated with anti-PKB-PH antibody (Kinetek #XXP-021), anti-PKBalpha antibody (Signal Transduction #67220), or anti-PKB gamma antibody (UBI 306-607) and incubated end over end at 4 deg C. […] All vials were counted for one minute in the scintillation counter.
(§2) A kinase assay in cells was also performed using anti PKB alpha and gamma antibodies in order to determine any inhibition of the isoforms by KP-23172. U87 cells were treated with 5 uM compound, lysed, and the resulting supernatant was analyzed for any changed in PKB activity. […]

PKB alpha = target: T2, PKB alpha (Homo sapiens, UniProt P31749); experiment: Kinase assay in U87 cells using anti PKB alpha antibody; assay type: cell-based; conditions: U-87 MG, 1 h, after 60 min, read-out: PKB alpha isoform activity, reduction of activity to
T2 construct: endogenous in cells; host or cells: U87 cells
T2 sequence (P31749 whole entry, canonical isoform): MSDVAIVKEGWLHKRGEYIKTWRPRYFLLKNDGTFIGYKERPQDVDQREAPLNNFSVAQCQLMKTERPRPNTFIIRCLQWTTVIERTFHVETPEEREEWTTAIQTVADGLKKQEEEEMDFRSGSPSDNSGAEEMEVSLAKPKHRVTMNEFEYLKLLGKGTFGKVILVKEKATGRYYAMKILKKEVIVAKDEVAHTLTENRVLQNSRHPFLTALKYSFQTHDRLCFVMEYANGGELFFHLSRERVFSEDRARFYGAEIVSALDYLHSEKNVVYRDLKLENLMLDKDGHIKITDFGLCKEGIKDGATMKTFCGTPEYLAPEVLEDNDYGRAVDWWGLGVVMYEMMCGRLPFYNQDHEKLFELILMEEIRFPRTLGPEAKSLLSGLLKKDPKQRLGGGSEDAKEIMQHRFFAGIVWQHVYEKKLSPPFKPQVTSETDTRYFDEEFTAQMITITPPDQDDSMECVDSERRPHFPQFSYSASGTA
Protocol: as §1, §2

[3] = tested on: SKOV-3 (human ovarian carcinoma); experiment: [3H] thymidine uptake cell proliferation assay, SKOV3; assay type: cell-based; conditions: SK-OV-3, read-out: Cell Proliferation Effects (IC50 (nM))
U-87 (human glioma) = experiment: [3H] thymidine uptake cell proliferation assay, U87; assay type: cell-based
Protocol: Compounds were added to culture at mid-logarithmic growth and incubated for 20 hours. (N=8 for the values+standard errors). […] Cell lines A-549 (human lung carcinoma), B16-F1 (murine melanoma), B16-F10 (murine melanoma), DU-145 (human […] carcinoma), LS-180 (human colon carcinoma), PC3 (human prostate carcinoma), SKOV-3 (human ovarian carcinoma), U-87 (human glioma), and NIH-3T3 (murine embryonic fibroblasts) were all cultured in DMEM supplemented with 10% fetal bovine serum. M3 murine melanoma cells were cultured in DMEM/F12 1:1, and HT-29 human colon carcinoma and LL2 Lewis Lung […] lung carcinoma were cultured in RPMI1640. All the foregoing cell lines were obtained from ATCC. All cells were passaged regularly using 0.25% Trypsin-EDTA in order to maintain cells at exponential growth for various experiments. LS 180 cells were passaged without trypsin and were physically scraped off the culture flasks. In vitro [^3H] thymidine uptake assay. Proliferation can be measured by quantifying the amount of [^3H] thymidine uptake into cells using a β-counter, and therefore is a well-established diagnostic tool to measure DNA synthesis within the cells. […] The cells were allowed to adhere to the plates via incubation at 37° C. in 5% CO2 for 12–14 hours. […] Then, 10 μL of the compound was added to the pre-existing 90 μL per well, and incubated further at 37° C. in 5% CO2 for 20 hours. To measure thymidine incorporation, cells were fixed onto the culture wells by slowly adding ¼^th volume of cold 50% TCA into each well (25 μL to each well) and incubated for 1–2 hours at 4° C. Wells were washed 5 times with tap water to remove any free [^3H] thymidine in the media, and air-dried completely at room temperature. Then, 100 μL of scintillation fluid was added to each well and the activity counted using a Wallac Microbeta Counter.

[4] = tested on: PC3 (human prostate carcinoma); experiment: [3H] thymidine uptake cell proliferation assay, PC3; assay type: cell-based; conditions: PC-3, read-out: Cell Proliferation Effects (IC50 (nM))
[5] = In vivo xenograft model, tumour growth; conditions: 2.5 mg/kg daily i.p. in DMSO, day 15, athymic (Rag2M) female mice; control 100%
Protocol: Mice were inoculated subcutaenously in the rear flank with […] (LS180) and then injected daily with KP-23172 i.p. Tumour measurements were taken daily. A group of 8 athymic (Rag2M) female mice were used as a murine allograft model for the test compound, which was administered in DMSO. 8 control mice received no test compound. Mice were inoculated with tumour cells subcutaneously in the rear flank and then injected with test compound daily intraperitoneally. Tumors were measured and the size calculated, with the objective being a reduction in tumor growth compared to controls. […] Results are illustrated in FIG. 4.

physchem = experiment: physchem
From the text: Solubility of KP-23172 was studied in various percent solutions of hydroxypropyl-B-cyclodextrin in water.

SMILES: O=C1c2ccccc2-c2nc3nnnn3nc21 [KP-23172]
- IC50 [1]: 400 nM
- IC50 [2]: 150 nM
- activity at 5 µM (PKB gamma): 18.3%
- activity at 5 µM (PKB alpha): 29.6%
- IC50 [3]: 200 nM
- IC50 (U-87 (human glioma); U-87 MG, U87, read-out: Cell Proliferation Effects (IC50 (nM))): 50 nM
- IC50 (U-87 (human glioma); added at mid-logarithmic growth, incubated 20 hours, N=8, read-out: U87 proliferation (thymidine incorporation) IC50, FIG. 1): 50 nM
- IC50 [4]: 250 nM
- tumor take rate [5]: 62.5%
- 1:1 binding constant for the cyclodextrin inclusion complex (physchem): 474
- solubility (physchem; aqueous with cosolvent or surfactant or cyclodextrin): 728 µg/mL (≈ 3250 µM)
- solubility (physchem; water): 77 µg/mL (≈ 343 µM)
